Test results from PubChem BioAssay AID214 (DTP/NCI, 2004).
Several values for one entry are separate records, joined by “and”; a condition that tells them apart may be missing. Equal entries are not always repeated. Results filed as inconclusive are left out.

System: B6C3F1 mice, colon carcinoma 38 s.c., T/C
Assay: NCI In Vivo Anticancer Drug Screen. Data for tumor model Colon Carcinoma 38 (subcutaneous) in B6C3F1 mice
Conditions: higher = larger tumour
Method: The antitumor activity of compounds was measured in mice bearing transplantable tumors. Survival or tumor size were measured and the results are expressed as the measurement made in the treated group (T) divided by the measurement made in the vehicle treated control group (C). The tumor model used in this assay is Colon Carcinoma 38 (subcutaneous) in B6C3F1 mice

[1] = endpoint: median tumor weight (est.), dose: 50.0 mg/kg/injection, schedule: Q07DX002 (ip), vehicle: Klucel (hydroxypropylcellulose) (HPC)
[2] = endpoint: median tumor weight (est.), dose: 200.0 mg/kg/injection, schedule: Q07DX002 (ip), vehicle: Klucel (hydroxypropylcellulose) (HPC)
[3] = endpoint: median tumor weight (est.), dose: 400.0 mg/kg/injection, schedule: Q07DX002 (ip), vehicle: Klucel (hydroxypropylcellulose) (HPC)
[4] = endpoint: median tumor weight (est.), dose: 100.0 mg/kg/injection, schedule: Q07DX002 (ip), vehicle: Klucel (hydroxypropylcellulose) (HPC)
[5] = endpoint: median tumor weight (est.), dose: 25.0 mg/kg/injection, schedule: Q07DX002 (ip), vehicle: saline with Tween-80
[6] = endpoint: median tumor weight (est.), dose: 50.0 mg/kg/injection, schedule: Q07DX002 (ip), vehicle: saline with Tween-80
[7] = endpoint: median tumor weight (est.), dose: 100.0 mg/kg/injection, schedule: Q07DX002 (ip), vehicle: saline with Tween-80

SMILES: COC(=O)Nc1nc2ccc(SC)cc2c(=O)[nH]1
- T/C [1]: 117 % of control
- T/C [2]: 84 % of control
- T/C [3]: 109 % of control

SMILES: CN(C)c1ccc2c(SCC(=O)OCC(=O)[C@@]3(O)CC[C@H]4[C@@H]5CCC6=CC(=O)C=C[C@]6(C)[C@H]5C(=O)C[C@@]43C)c3ccc(N(C)C)cc3nc2c1
- T/C [1]: 105 % of control
- T/C [4]: 78 % of control
- T/C [2]: 81 % of control
- T/C [3]: 82 % of control
- T/C (endpoint: median tumor weight (est.), dose: 800.0 mg/kg/injection, schedule: Q07DX002 (ip), vehicle: Klucel (hydroxypropylcellulose) (HPC)): 16 % of control

SMILES: Cc1cc(NCCCN(C)C)c2ccc3c(ccc4c(NCCCN(C)C)cc(C)nc43)c2n1
- T/C (endpoint: median tumor weight (est.), dose: 0.78 mg/kg/injection, schedule: Q07DX002 (ip), vehicle: saline): 97 % of control
- T/C (endpoint: median tumor weight (est.), dose: 1.56 mg/kg/injection, schedule: Q07DX002 (ip), vehicle: saline): 91 % of control
- T/C (endpoint: median tumor weight (est.), dose: 3.12 mg/kg/injection, schedule: Q07DX002 (ip), vehicle: saline): 115 % of control
- T/C (endpoint: median tumor weight (est.), dose: 6.25 mg/kg/injection, schedule: Q07DX002 (ip), vehicle: saline): 100 % of control

SMILES: CC[C@H](CC[C@@H](C)C1CC[C@H]2[C@@H]3CC=C4C[C@@H](OP(=O)(N5CC5)N5CC5)CC[C@]4(C)[C@H]3CC[C@]12C)C(C)C (some centres not stated)
- T/C (endpoint: median tumor weight (est.), dose: 225.0 mg/kg/injection, schedule: Q07DX002 (ip), vehicle: saline with Tween-80): 246 % of control
- T/C (endpoint: median tumor weight (est.), dose: 450.0 mg/kg/injection, schedule: Q07DX002 (ip), vehicle: saline with Tween-80): 205 % of control
- T/C (endpoint: median tumor weight (est.), dose: 900.0 mg/kg/injection, schedule: Q07DX002 (ip), vehicle: saline with Tween-80): 115 % of control

SMILES: O=c1c(O)c(-c2cc(O)c(O)c(O)c2)oc2cc(O)cc(O)c12
- T/C (endpoint: median tumor weight (est.), dose: 600.0 mg/kg/injection, schedule: Q07DX002 (ip), vehicle: saline with Tween-80): 95 % of control

SMILES: COC12C(COC(=O)NCCO)C3=C(C(=O)C(C)=C(N)C3=O)N1CC1NC12 (configuration not stated)
- T/C (endpoint: median tumor weight (est.), dose: 12.5 mg/kg/injection, schedule: Q07DX002 (ip), vehicle: Klucel (hydroxypropylcellulose) (HPC)): 65 % of control
- T/C (endpoint: median tumor weight (est.), dose: 25.0 mg/kg/injection, schedule: Q07DX002 (ip), vehicle: Klucel (hydroxypropylcellulose) (HPC)): 50 % of control
- T/C [1]: 12 % of control

SMILES: COc1ccccc1CC(=O)O
- T/C (endpoint: median tumor weight (est.), dose: 75.0 mg/kg/injection, schedule: Q07DX002 (ip), vehicle: saline with Tween-80): 78 % of control
- T/C (endpoint: median tumor weight (est.), dose: 150.0 mg/kg/injection, schedule: Q07DX002 (ip), vehicle: saline with Tween-80): 107 % of control
- T/C (endpoint: median tumor weight (est.), dose: 300.0 mg/kg/injection, schedule: Q07DX002 (ip), vehicle: saline with Tween-80): 98 % of control

SMILES: CCCCCC(O)C1C(=O)OC(C)C(O)/C=C/C=C/C=C/C=C\C=C(\C)C(O)CC(O)CC(O)CC(O)CC(O)CC(O)CC1O (configuration not stated)
- T/C (endpoint: median tumor weight (est.), dose: 6.25 mg/kg/injection, schedule: Q07DX002 (ip), vehicle: water): 81 % of control
- T/C (endpoint: median tumor weight (est.), dose: 12.5 mg/kg/injection, schedule: Q07DX002 (ip), vehicle: water): 103 % of control
- T/C (endpoint: median tumor weight (est.), dose: 25.0 mg/kg/injection, schedule: Q07DX002 (ip), vehicle: water): 77 % of control
- T/C (endpoint: median tumor weight (est.), dose: 50.0 mg/kg/injection, schedule: Q07DX002 (ip), vehicle: water): 69 % of control
- T/C (endpoint: median tumor weight (est.), dose: 100.0 mg/kg/injection, schedule: Q07DX002 (ip), vehicle: water): 62 % of control

SMILES: O=[N+]([O-])c1ccc(N(CCO)CCO)c2c1no[n+]2[O-]
- T/C [5]: 85 % of control
- T/C [6]: 63 % of control

SMILES: CCC(NC(N)=O)C(CC)NC(N)=O (configuration not stated)
- T/C [5]: 83 % of control
- T/C [6]: 88 % of control
- T/C [7]: 81 % of control

SMILES: CCN(CC)CCOCCO
- T/C (endpoint: median tumor weight (est.), dose: 50.0 mg/kg/injection, schedule: Q07DX002 (ip), vehicle: suspension in saline): 150 % of control
- T/C (endpoint: median tumor weight (est.), dose: 100.0 mg/kg/injection, schedule: Q07DX002 (ip), vehicle: suspension in saline): 160 % of control

SMILES: Cc1cc(=O)c2cccc(CC(=O)O)c2o1
- T/C [3]: 117 % of control

SMILES: CN(C)C1C(=O)C(C(=O)NP(=O)(NCCCO)N(CCCl)CCCl)=C(O)C2(O)C(=O)C3=C(O)c4c(O)cccc4C(C)(O)C3CC12 (configuration not stated)
- T/C [7]: 176 % of control
- T/C (endpoint: median tumor weight (est.), dose: 200.0 mg/kg/injection, schedule: Q07DX002 (ip), vehicle: saline with Tween-80): 42 % of control

SMILES: COc1cccc(-c2cc(=O)c3cccc(CC(=O)O)c3o2)c1
- T/C (endpoint: median tumor weight (est.), dose: 100.0 mg/kg/injection, schedule: Q07DX002 (ip), vehicle: saline): 3 % of control

SMILES: O=c1[nH]cccc1O
- T/C (endpoint: median tumor weight (est.), dose: 62.5 mg/kg/injection, schedule: Q07DX002 (ip), vehicle: saline with Tween-80): 91 % of control
- T/C (endpoint: median tumor weight (est.), dose: 125.0 mg/kg/injection, schedule: Q07DX002 (ip), vehicle: saline with Tween-80): 90 % of control and 97 % of control
- T/C (endpoint: median tumor weight (est.), dose: 250.0 mg/kg/injection, schedule: Q07DX002 (ip), vehicle: saline with Tween-80): 90 % of control and 95 % of control
- T/C (endpoint: median tumor weight (est.), dose: 500.0 mg/kg/injection, schedule: Q07DX002 (ip), vehicle: saline with Tween-80): 95 % of control and 70 % of control
- T/C (endpoint: median tumor weight (est.), dose: 1000.0 mg/kg/injection, schedule: Q07DX002 (ip), vehicle: saline with Tween-80): 74 % of control

SMILES: NC(=O)CCC(N)C(=O)O (configuration not stated)
- T/C (endpoint: median tumor weight (est.), dose: 75.0 mg/kg/injection, schedule: Q07DX002 (ip), vehicle: suspension in saline): 113 % of control
- T/C (endpoint: median tumor weight (est.), dose: 150.0 mg/kg/injection, schedule: Q07DX002 (ip), vehicle: suspension in saline): 43 % of control
- T/C (endpoint: median tumor weight (est.), dose: 300.0 mg/kg/injection, schedule: Q07DX002 (ip), vehicle: suspension in saline): 84 % of control
- T/C (endpoint: median tumor weight (est.), dose: 600.0 mg/kg/injection, schedule: Q07DX002 (ip), vehicle: suspension in saline): 101 % of control
- T/C (endpoint: median tumor weight (est.), dose: 1200.0 mg/kg/injection, schedule: Q07DX002 (ip), vehicle: suspension in saline): 91 % of control

SMILES: CCCNC1=C(C)C(=O)C2=C(C1=O)[C@H](COC(N)=O)[C@]1(OC)[C@@H]3N[C@@H]3CN21
- T/C (endpoint: median tumor weight (est.), dose: 1.5 mg/kg/injection, schedule: Q07DX002 (ip), vehicle: suspension in saline): 73 % of control
- T/C (endpoint: median tumor weight (est.), dose: 3.0 mg/kg/injection, schedule: Q07DX002 (ip), vehicle: suspension in saline): 114 % of control
- T/C (endpoint: median tumor weight (est.), dose: 6.0 mg/kg/injection, schedule: Q07DX002 (ip), vehicle: suspension in saline): 112 % of control
- T/C (endpoint: median tumor weight (est.), dose: 12.0 mg/kg/injection, schedule: Q07DX002 (ip), vehicle: suspension in saline): 33 % of control
- T/C (endpoint: median tumor weight (est.), dose: 24.0 mg/kg/injection, schedule: Q07DX002 (ip), vehicle: suspension in saline): 36 % of control

SMILES: O=c1[nH]cc(F)c(=O)[nH]1
- T/C (endpoint: median tumor weight (est.), dose: 8.75 mg/kg/injection, schedule: Q07DX002 (ip), vehicle: saline): 59 % of control
- T/C (endpoint: median tumor weight (est.), dose: 24.0 mg/kg/injection, schedule: Q01DX006 (ip), vehicle: saline): 9 % of control
- T/C (endpoint: median tumor weight (est.), dose: 36.0 mg/kg/injection, schedule: Q01DX006 (ip), vehicle: saline): 7 % of control
- T/C (endpoint: optimum tumor weight change, dose: 35.0 mg/kg/injection, schedule: Q07DX002 (ip), vehicle: saline): 48 % of control
- T/C (endpoint: optimum tumor weight change, dose: 70.0 mg/kg/injection, schedule: Q07DX002 (ip), vehicle: saline): 46 % of control
- T/C (endpoint: optimum tumor weight change, dose: 140.0 mg/kg/injection, schedule: Q07DX002 (ip), vehicle: saline): 45 % of control

SMILES: OCC1OC(n2cnc3c(=S)nc[nH]c32)C(O)C1O (configuration not stated)
- T/C (endpoint: median tumor weight (est.), dose: 250.0 mg/kg/injection, schedule: Q07DX002 (ip), vehicle: suspension in saline): 74 % of control
- T/C (endpoint: median tumor weight (est.), dose: 500.0 mg/kg/injection, schedule: Q07DX002 (ip), vehicle: suspension in saline): 31 % of control
- T/C (endpoint: median tumor weight (est.), dose: 1000.0 mg/kg/injection, schedule: Q07DX002 (ip), vehicle: suspension in saline): 41 % of control

SMILES: CN(C)CCCNc1c2ccccc2nc2cccc([N+](=O)[O-])c12
- T/C (endpoint: median tumor weight (est.), dose: 0.03 mg/kg/injection, schedule: Q07DX002 (ip), vehicle: saline): 104 % of control
- T/C (endpoint: median tumor weight (est.), dose: 0.06 mg/kg/injection, schedule: Q07DX002 (ip), vehicle: saline): 79 % of control and 221 % of control

SMILES: O=S(=O)([O-])c1ccc(-c2c3nc(c(-c4ccc(S(=O)(=O)[O-])cc4)c4ccc([n-]4)c(-c4ccc(S(=O)(=O)[O-])cc4)c4nc(c(-c5ccc(S(=O)(=O)[O-])cc5)c5ccc2[n-]5)C=C4)C=C3)cc1.[Mn+3].[Na+]
- T/C (endpoint: median tumor weight change, dose: 226.9 mg/kg/injection, schedule: Q07DX002 (iv), vehicle: water): 67 % of control
- T/C (endpoint: median tumor weight change, dose: 340.9 mg/kg/injection, schedule: Q07DX002 (iv), vehicle: water): 77 % of control
- T/C (endpoint: median tumor weight change, dose: 515.0 mg/kg/injection, schedule: Q07DX002 (iv), vehicle: water): 110 % of control

SMILES: Cn1cc(C2NC(=O)c3ccccc3N2)c2ccccc21 (configuration not stated)
- T/C [1]: 46 % of control
- T/C [4]: 244 % of control
- T/C [2]: 42 % of control and 63 % of control
- T/C [3]: 151 % of control
- T/C (endpoint: median tumor weight (est.), dose: 1600.0 mg/kg/injection, schedule: Q07DX002 (ip), vehicle: Klucel (hydroxypropylcellulose) (HPC)): 96 % of control
